The source of these data is patent US10981894B2, “Melanocortin subtype-2 receptor (MC2R) antagonists and uses thereof” (Crinetics Pharmaceuticals, Inc., priority 2018, dated 2021).

The target of this experiment is hMC2 receptor (Homo sapiens, UniProt Q01718). As to the kind of experiment: hMC2 membrane binding assay ([125I]ACTH (1-39) Tyr23, SPA). Details: scale not given here. Conditions: crude hMC2R membranes from CRE-bla-CHO-K1 cells expressing hMC2 receptor and hMRAP; [125I]ACTH (1-39) Tyr23 0.2 nM; 1.5 hours at room temperature; read-out: MC2R binding potency. The method, boiled down:
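Ki comes from non-linear regression of SPA scintillation counts. Displacement of 0.2 nM [125I]ACTH(1-39) Tyr23 by compound dose series (usually 0–10,000 nM final) ran 1.5 h at room temperature. Membranes came from CHO-K1 CRE-bla cells stably expressing hMC2R plus hMRAP, bead-coupled in pH 7.4 buffer with 0.2% BSA.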

SMILES strings stand for the structures. Some results are limits rather than exact numbers.

hMC2 receptor, sequence (Q01718 whole entry): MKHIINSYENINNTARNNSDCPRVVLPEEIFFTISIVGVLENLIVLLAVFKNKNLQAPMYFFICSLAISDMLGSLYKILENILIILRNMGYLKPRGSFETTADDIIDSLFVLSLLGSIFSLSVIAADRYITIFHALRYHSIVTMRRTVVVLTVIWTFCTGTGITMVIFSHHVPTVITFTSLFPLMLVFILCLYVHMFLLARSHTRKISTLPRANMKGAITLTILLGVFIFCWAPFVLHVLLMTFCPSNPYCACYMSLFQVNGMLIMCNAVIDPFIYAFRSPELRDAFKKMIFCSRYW
hMC2 receptor, sequence (Q8TCY5 whole entry partner): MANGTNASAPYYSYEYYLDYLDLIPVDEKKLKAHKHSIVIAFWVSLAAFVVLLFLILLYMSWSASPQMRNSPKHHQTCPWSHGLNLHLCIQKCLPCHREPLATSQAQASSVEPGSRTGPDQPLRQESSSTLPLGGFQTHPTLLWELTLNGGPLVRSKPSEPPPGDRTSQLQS

Take `CCOc1ccccc1-c1ccc(N2CCN(C(=O)N3CCc4cc(F)cc(C#N)c43)C[C@H]2CC)c(C(=O)N[C@H]2CCN(C)C2)n1` [Compound 1-426, 3-[(2R)-4-(7-cyano-5-fluoro-2,3-dihydro-1H-indole-1-carbonyl)-2-ethylpiperazin-1-yl]-6-(2-ethoxyphenyl)-N-[(3S)-1-methylpyrrolidin-3-yl]pyridine-2-carboxamide]: the Ki is below 10 nM.
As for `CCOc1ncccc1-c1ccc(N2CCN(C(=O)C3(C(F)(F)F)CCCC3)C[C@H]2CC)c(C(=O)N[C@H]2CCN(C)C2)n1` [Compound 1-363, 2′-ethoxy-5-[(2R)-2-ethyl-4-[1-(trifluoromethyl)cyclopentanecarbonyl]piperazin-1-yl]-N-[(3S)-1-methylpyrrolidin-3-yl]-[2,3′-bipyridine]-6-carboxamide], the figure is below 10 nM; as for `CCOc1ncccc1-c1ccc(N2CCN(C(=O)c3ccc(Cl)cc3C(F)(F)F)C[C@H]2CC)c(CNC)n1` [Compound 2-16, ({5-[(2R)-4-[4-chloro-2-(trifluoromethyl)benzoyl]-2-ethylpiperazin-1-yl]-2′-ethoxy-[2,3′-bipyridin]-6-yl}methyl)(methyl)amine], below 10 nM.
As for `CCOc1ncccc1-c1ccc(N2CCN(C(=O)c3ccc(Cl)cc3C(F)(F)F)C[C@H]2CC)c(C(=O)NCCN(C)C)c1F` [Compound 1-173, 6-[(2R)-4-[4-chloro-2-(trifluoromethyl)benzoyl]-2-ethylpiperazin-1-yl]-N-[2-(dimethylamino)ethyl]-3-(2-ethoxypyridin-3-yl)-2-fluorobenzamide], the figure is below 10 nM; as for `CCOc1ncccc1-c1ccc(N2CCN(C(=O)N3CCC[C@H]3c3ccccc3)C[C@H]2CC)c(C(=O)N[C@@H]2CCNC2)n1` [Compound 1-345, 2′-ethoxy-5-[(2R)-2-ethyl-4-[(2S)-2-phenylpyrrolidine-1-carbonyl]piperazin-1-yl]-N-[(3R)-pyrrolidin-3-yl]-[2,3′-bipyridine]-6-carboxamide], below 10 nM.
Take `CCOc1ncccc1-c1ccc(N2CCN(C(=O)c3ccc(Cl)cc3C#N)C[C@H]2CC)c(C(=O)N[C@@H]2CCNC2)c1` [Compound 1-142, 2-[(2R)-4-(4-chloro-2-cyanobenzoyl)-2-ethylpiperazin-1-yl]-5-(2-ethoxypyridin-3-yl)-N-[(3R)-pyrrolidin-3-yl]benzamide]: the Ki is below 10 nM.
As for `CCOc1ncccc1-c1ccc(N2CCN(C(=O)c3ccc(F)cc3C(F)(F)F)C[C@H]2CC)c(C(=O)N[C@@H]2CCN(C)C2)n1` [Compound 1-258, 2′-ethoxy-5-[(2R)-2-ethyl-4-[4-fluoro-2-(trifluoromethyl)benzoyl]piperazin-1-yl]-N-[(3R)-1-methylpyrrolidin-3-yl]-[2,3′-bipyridine]-6-carboxamide], the figure is below 10 nM; as for `CCOc1ncccc1-c1ccc(N2CCN(C(=O)c3ccc(Cl)cc3C(F)(F)F)C[C@H]2CC)c(C(=O)N[C@H]2CCN(C)C2)c1F` [Compound 1-201, 6-[(2R)-4-[4-chloro-2-(trifluoromethyl)benzoyl]-2-ethylpiperazin-1-yl]-3-(2-ethoxypyridin-3-yl)-2-fluoro-N-[(3S)-1-methylpyrrolidin-3-yl]benzamide], below 10 nM; as for `CCOc1ncccc1-c1ccc(N2CCN(C(=O)c3ccc(OC)nc3C(F)(F)F)C[C@H]2CC)c(C(=O)N[C@@H]2CN(C)C[C@H]2F)n1` [Compound 1-290, 2′-ethoxy-5-[(2R)-2-ethyl-4-[6-methoxy-2-(trifluoromethyl)pyridine-3-carbonyl]piperazin-1-yl]-N-[(3R,4R)-4-fluoro-1-methylpyrrolidin-3-yl]-[2,3′-bipyridine]-6-carboxamide], below 10 nM.
As for `CCOc1ncccc1-c1ccc(N2CCN(C(=O)N3CCc4cccc(C#N)c43)C[C@H]2CC)c(C(=O)NC2CN(C)C2)n1` [Compound 1-409, 5-[(2R)-4-(7-cyano-2,3-dihydro-1H-indole-1-carbonyl)-2-ethylpiperazin-1-yl]-2′-ethoxy-N-(1-methylazetidin-3-yl)-[2,3′-bipyridine]-6-carboxamide], the figure is below 10 nM; as for `CCOc1ncccc1-c1ccc(N2CCN(C(=O)N3CCC[C@H]3C(C)(C)F)C[C@H]2CC)c(C(=O)N[C@@H]2CCNC2)n1` [Compound 1-320, 2′-ethoxy-5-[(2R)-2-ethyl-4-[(2S)-2-(2-fluoropropan-2-yl)pyrrolidine-1-carbonyl]piperazin-1-yl]-N-[(3R)-pyrrolidin-3-yl]-[2,3′-bipyridine]-6-carboxamide], below 10 nM.
Regarding `CCOc1ncccc1-c1ccc(N2CCN(C(=O)c3ccc(Cl)cc3C(F)F)C[C@H]2CC)c(C(=O)N[C@@H]2CCNC2)n1` [Compound 1-265, 5-[(2R)-4-[4-chloro-2-(difluoromethyl)benzoyl]-2-ethylpiperazin-1-yl]-2′-ethoxy-N-[(3R)-pyrrolidin-3-yl]-[2,3′-bipyridine]-6-carboxamide], the Ki is below 10 nM.
As for `CCOc1ncccc1-c1ccc(N2CCN(C(=O)c3ccc(Cl)cc3C(F)(F)F)C[C@H]2CC)c(C(=O)NC2CN(C)C2)n1` [Compound 1-212, 5-[(2R)-4-[4-chloro-2-(trifluoromethyl)benzoyl]-2-ethylpiperazin-1-yl]-2′-ethoxy-N-(1-methylazetidin-3-yl)-[2,3′-bipyridine]-6-carboxamide], the figure is below 10 nM.
As for `CCOc1ncccc1-c1ccc(N2CCN(C(=O)N3CCc4cccc(C(F)(F)F)c43)C[C@H]2CC)c(C(=O)N[C@H]2CCN(C)C2)n1` [Compound 1-389, 2′-ethoxy-5-[(2R)-2-ethyl-4-[7-(trifluoromethyl)-2,3-dihydro-1H-indole-1-carbonyl]piperazin-1-yl]-N-[(3S)-1-methylpyrrolidin-3-yl]-[2,3′-bipyridine]-6-carboxamide], the figure is below 10 nM; as for `CCOc1ncccc1-c1ccc(N2CCN(C(=O)c3ccc(C)cc3N3CCC(CN)C3)C[C@H]2CC)c(C(=O)NCCN)c1` (stereo partly drawn) [Compound 1-104, N-(2-aminoethyl)-2-[(2R)-4-{2-[3-(aminomethyl)pyrrolidin-1-yl]-4-methylbenzoyl}-2-ethylpiperazin-1-yl]-5-(2-ethoxypyridin-3-yl)benzamide], below 10 nM.
The value for `CCOc1ncccc1-c1ccc(N2CCN(C(=O)N3CCc4cccc(Cl)c43)C[C@H]2CC)c(C(=O)N[C@@H]2CCNC2)n1` [Compound 1-346, 5-[(2R)-4-(7-chloro-2,3-dihydro-1H-indole-1-carbonyl)-2-ethylpiperazin-1-yl]-2′-ethoxy-N-[(3R)-pyrrolidin-3-yl]-[2,3′-bipyridine]-6-carboxamide] was below 10 nM; that for `CC[C@@H]1CN(C(=O)c2ccc(C(F)(F)F)cc2Cl)CCN1c1ccc(-c2ccccc2C(=O)NC)cc1C(=O)NCCN` [Compound 1-20, (R)-N3′-(2-aminoethyl)-4′-(4-(2-chloro-4-(trifluoromethyl)benzoyl)-2-ethylpiperazin-1-yl)-N2-methyl-[1,1′-biphenyl]-2,3′-dicarboxamide] was 10 to 100 nM.
Regarding `CCOc1ccc(C(=O)N2CCN(c3ccc(-c4cccnc4OCC)nc3C(=O)NC3CN(C)C3)[C@H](CC)C2)c(C(F)(F)F)n1` [Compound 1-233, 2′-ethoxy-5-[(2R)-4-[6-ethoxy-2-(trifluoromethyl)pyridine-3-carbonyl]-2-ethylpiperazin-1-yl]-N-(1-methylazetidin-3-yl)-[2,3′-bipyridine]-6-carboxamide], the Ki is below 10 nM.
The value for `CCOc1ncccc1-c1ccc(N2CCN(C(=O)c3ccc(F)cc3C(F)F)C[C@H]2CC)c(C(=O)NCCNC)c1F` [Compound 1-177, 6-[(2R)-4-[2-(difluoromethyl)-4-fluorobenzoyl]-2-ethylpiperazin-1-yl]-3-(2-ethoxypyridin-3-yl)-2-fluoro-N-[2-(methylamino)ethyl]benzamide] was below 10 nM.
As for `CCOc1ncccc1-c1ccc(N2CCN(C(=O)c3ccc(Cl)cc3C(F)(F)F)C[C@H]2CC)c(C(=O)NC[C@H]2CCCN2)c1F` [Compound 1-124, 6-[(2R)-4-[4-chloro-2-(trifluoromethyl)benzoyl]-2-ethylpiperazin-1-yl]-3-(2-ethoxypyridin-3-yl)-2-fluoro-N-{[(2R)-pyrrolidin-2-yl]methyl}benzamide], the figure is below 10 nM; as for `CCOc1ccccc1-c1ccc(N2CCN(C(=O)C3(C(F)F)CCCC3)C[C@H]2CC)c(C(=O)N[C@@H]2CCN(C)C2)n1` [Compound 1-417, 3-[(2R)-4-[1-(difluoromethyl)cyclopentanecarbonyl]-2-ethylpiperazin-1-yl]-6-(2-ethoxyphenyl)-N-[(3R)-1-methylpyrrolidin-3-yl]pyridine-2-carboxamide], below 10 nM; as for `CCOc1cnccc1-c1ccc(N2CCN(C(=O)c3ccc(C(F)(F)F)cc3Cl)C[C@H]2CC)c(C(=O)NCCN)c1` [Compound 1-33, N-(2-aminoethyl)-2-[(2R)-4-[2-chloro-4-(trifluoromethyl)benzoyl]-2-ethylpiperazin-1-yl]-5-(3-ethoxypyridin-4-yl)benzamide], 10 to 100 nM.
The value for `CCOc1ncccc1-c1ccc(N2CCN(C(=O)c3ccc(F)cc3Cl)C[C@H]2CC)c(C(=O)NCCN)c1` [Compound 1-38, N-(2-aminoethyl)-2-[(2R)-4-(2-chloro-4-fluorobenzoyl)-2-ethylpiperazin-1-yl]-5-(2-ethoxypyridin-3-yl)benzamide] was below 10 nM; that for `CCOc1ncccc1-c1ccc(N2CCN(C(=O)C3(C(F)(F)F)CCC3)C[C@H]2CC)c(C(=O)N[C@@H]2CCN(C)C2)n1` [Compound 1-283, 2′-ethoxy-5-[(2R)-2-ethyl-4-[1-(trifluoromethyl)cyclobutanecarbonyl]piperazin-1-yl]-N-[(3R)-1-methylpyrrolidin-3-yl]-[2,3′-bipyridine]-6-carboxamide] was below 10 nM.
